Data published in US20050089473A1, “Potassium channel mediated delivery of agents through the blood-brain barrier” (Cedars-Sinai Medical Center, priority 2003, published 2005).
Where “and” joins values, the source holds several entries; their conditions need not be identical. Equal entries are not always repeated. Where two headings read alike, the source gives them in different places. Ends that are not written are not given here.

Columns and labels:
[1] = cited from earlier work
[2] = system: intracranial human glial tumors; experiment: Survival study, nude mice with intracranial human glial tumors; assay type: in vivo, mouse; settings: i.v., three consecutive doses for three days
Procedure: GBM-xenograft rat and mouse models were developed by intracranially implanting primary GBM cells isolated from patient brain tumor tissue. […] To investigate whether MS administration by intracarotid (i.c.) and intravenous (i.v.) routes, increases BTB permeability to different tracers, and enhances delivery to brain tumor, permeability studies were performed.
Nude mice were intracranially implanted with cells. The tumor was allowed to grow for 7 days before treatment was initiated.

intracranial RG2 tumors = experiment: Survival study, rats with intracranial RG2 tumors; assay type: in vivo, rat
Procedure: Wistar rats with implanted intracranial tumors were used to study the effect of MS on increased carboplatin delivery and survival. RG2 cells (1×10^5) were implanted intracranially to form a tumor (2 mm in size) in rats within a week. After a week, rats were given saline, carboplatin (5 mg/kg) or carboplatin after 15 min of MS (30 μg/kg/min for 15 min) infusion through an exteriorized catheter once a day for three consecutive days. The rats were carefully monitored for mortality and clinical signs due to brain tumor growth for 90 days or until death, whichever came first. Brains of dead, moribund or those rats that survived beyond 90 days were removed, frozen and cryosectioned for histological evaluation, in order to compare tumor volumes between treated and untreated groups. Kaplan-Meier analysis was performed to determine the statistical significance of the results.

KATP channels = experiment: Membrane potential assay of KATP channel activity; assay type: cell-based, human; settings: RBEC, HBMVEC, RG2 and GBM cells
Procedure: Functional activities of putative KATP channels in HBMVEC and GBM cells were measured by detecting changes in voltage across the cell membrane as described earlier (Ningarsj, N. S., Rao, M., Hashizume, K., Asotra, K., and Black, K. L. Regulation of blood-brain tumor barrier permeability by calcium-activated potassium channels J. Pharmacol. Exp. Ther., 301:838-851, 2002). A membrane potential assay kit (Molecular Devices, Sunnyvale, Calif.) provided a fast, simple and consistent mix-and-read procedure. In brief, HBMVEC and GBM cells obtained from cell passages 2-5 was suspended in 5 ml of growth medium. In two separate experiments, the cell density was adjusted to 1×10^3 cells/well and coated in sterile, clear bottom, blank 96-well plates (Corning, Inc., Acton, Mass.), pre-coated with poly L-Lysine, and allowed to achieve a monolayer within 24 h. The monolayer cells were incubated with the membrane potential assay kit reagents for 30 min and read directly by FLEXstation. The anionic pchemiometric dye that traverses between cells and the extracellular solution in a membrane potential-dependent manner serves as an indicator of vasomodulator-induced voltage changes across the cell membrane. […] Additionally, the effects of the optimum dose (10 μM) of MS and glibenclamide (100 nM) on KATP channels activity in HBMVEC and GBM cells were determined.

intracerebral RG2 tumors = experiment: In vivo BTB permeability (Ki by quantitative autoradiography) in RG2 tumor-bearing rats; set-up: species or system rat; settings: data not shown
[3] = cited from earlier work; remark: listed apart in the source
soluble guanylyl cyclase = target: T1, soluble guanylyl cyclase (Bos taurus, UniProt P16068+P19687); settings: cited from earlier work
T1 sequence (P16068 1-619): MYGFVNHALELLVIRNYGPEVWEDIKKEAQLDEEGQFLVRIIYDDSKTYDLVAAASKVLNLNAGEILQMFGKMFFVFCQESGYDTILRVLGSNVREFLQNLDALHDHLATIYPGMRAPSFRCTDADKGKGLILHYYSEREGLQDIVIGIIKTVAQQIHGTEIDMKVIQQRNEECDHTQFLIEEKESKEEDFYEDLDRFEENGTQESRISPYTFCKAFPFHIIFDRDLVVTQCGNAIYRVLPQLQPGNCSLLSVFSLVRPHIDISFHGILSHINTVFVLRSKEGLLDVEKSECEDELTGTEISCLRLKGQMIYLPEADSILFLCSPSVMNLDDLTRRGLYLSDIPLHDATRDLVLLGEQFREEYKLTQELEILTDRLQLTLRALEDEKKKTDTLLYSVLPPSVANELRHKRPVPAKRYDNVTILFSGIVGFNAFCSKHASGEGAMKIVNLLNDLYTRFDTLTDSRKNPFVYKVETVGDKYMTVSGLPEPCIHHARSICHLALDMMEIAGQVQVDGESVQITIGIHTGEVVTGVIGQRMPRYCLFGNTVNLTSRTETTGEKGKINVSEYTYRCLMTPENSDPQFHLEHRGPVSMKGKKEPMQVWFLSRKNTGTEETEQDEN
T1 sequence (P19687 1-691): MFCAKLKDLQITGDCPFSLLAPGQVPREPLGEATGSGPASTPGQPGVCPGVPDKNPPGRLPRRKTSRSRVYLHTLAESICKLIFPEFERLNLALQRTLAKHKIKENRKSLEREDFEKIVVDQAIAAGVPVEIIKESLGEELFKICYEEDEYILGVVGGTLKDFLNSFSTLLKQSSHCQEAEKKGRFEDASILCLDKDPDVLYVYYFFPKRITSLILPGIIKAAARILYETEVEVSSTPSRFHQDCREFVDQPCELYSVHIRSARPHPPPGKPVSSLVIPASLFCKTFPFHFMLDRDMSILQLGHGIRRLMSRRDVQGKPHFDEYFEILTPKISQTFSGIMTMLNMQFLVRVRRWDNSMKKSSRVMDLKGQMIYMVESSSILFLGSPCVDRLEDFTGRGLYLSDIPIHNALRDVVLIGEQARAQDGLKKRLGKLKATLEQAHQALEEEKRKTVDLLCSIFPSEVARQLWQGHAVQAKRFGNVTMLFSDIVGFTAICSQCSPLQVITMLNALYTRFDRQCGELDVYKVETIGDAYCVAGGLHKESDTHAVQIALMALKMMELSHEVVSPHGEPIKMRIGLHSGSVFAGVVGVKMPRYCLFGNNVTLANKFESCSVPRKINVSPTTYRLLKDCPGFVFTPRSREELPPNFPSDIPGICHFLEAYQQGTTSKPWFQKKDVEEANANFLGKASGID

## RPPGFSPFR [BK]
[1]; rat, in vivo
  Effect on CBF in tumor and normal brain: did not alter CBF

## Cn1nnc2c(C(N)=O)ncn2c1=O [temodor]
[2]
  Mean survival: 25.5 ± 6.3 days

## N.N.O=C([O-])C1(C(=O)[O-])CCC1.[Pt+2] [carboplatin]
Intracranial RG2 tumors; RG2 tumor rats, i.c. once a day for three days, carboplatin 5 mg/kg, MS 30 μg/kg/min for 15 min
  Mean survival: 55.46 ± 5.71 days
Intracranial RG2 tumors; coronal brain sections
  Mean tumor size: 5.30±1.9 mm^2 and 5.30±1.2 mm^2

## COc1ccc(Cl)cc1C(=O)NCCc1ccc(S(=O)(=O)NC(=O)NC2CCCCC2)cc1 [glibenclamide]
KATP channels
  Membrane potential dye fluorescence intensity: reversed
Intracerebral RG2 tumors
  BBB or BTB permeability, glibenclamide infused alone or prior to MS: did not affect BBB or BTB permeability

## O=c1[nH]c2cc(C(F)(F)F)ccc2n1-c1cc(C(F)(F)F)ccc1O [NS-1619, 1,3-dihydro-1-[2-hydroxy-5-(trifluoromethyl)phenyl]-5-(trifluoromethyl)-2H-benzimidazol-2-one]
[1]; i.c. infusion of low doses
  Effect on CBF in tumor and normal brain: did not alter CBF

## NCCN(CCN)N(O)N=O [DETA/NO, 2,2′-hydroxynitrosohydrazino]bis-ethanamine]
[3]
  Half-life (t1/2) of NO donor: about 20 hours

## [C-]#[O+] [CO, Carbon monoxide]
Soluble guanylyl cyclase; in the presence of YC-1
  Increase in soluble guanylyl cyclase activity: > 100 fold

## CCN(CC)N(O)N=O.CCNCC [DEA/NO, N-ethylethanamine: 1,1-diethyl-2-hydroxy-2-nitrosohydrazine (1:1)]
[3]
  Half-life (t1/2) of NO donor: 2 to 4 min

## [N]=O [NO, Nitric oxide]
Soluble guanylyl cyclase
  Increase of vMax of sGC: 100-200 fold

## NCCCNCCCCN(CCCN)N(O)N=O [SPER/NO, N-(4-[1-(3-aminopropyl)-2-hydroxy-2-nitroso-hydrazino]-butyl)-1,3-propanediamine]
[3]
  Half-life (t1/2) of NO donor: 34 to 40 min

## CCCN(CCCN)N(O)N=O [PAPA/NO, 3-(2-hydroxy-2-nitroso-1-propylhydrazino)-1-propanamine]
[3]
  Half-life (t1/2) of NO donor: about 15 minutes

## CC(=O)NC(C(=O)O)C(C)(C)SN=O (racemic) [SNAP, S-nitroso-N-acetyl-D,L-penicillamine]
[3]
  Half-life (t1/2) of NO donor: 1980 to 2460 min
